Calls of active or inactive are those of the source. The calls are words filed in the database; no cut-off is given here.

Here are results for three compounds from ChEMBL document CHEMBL3593172, “4-(N-Phenyl-N'-substituted benzenesulfonyl)-6-(4-hydroxyphenyl)quinolines as inhibitors of mammalian target of rapamycin” (Bioorg Med Chem, 2015).

For experiment [1], the target named is Serine/threonine-protein kinase mTOR (Homo sapiens) (UniProt P42345). As to the kind of experiment: Inhibition of mTOR (unknown origin) assessed as p70S6K phosphorylation after 30 mins by ELISA.
The test system of experiment [2] is HL-60. As to the kind of experiment: Cytotoxicity against human HL60 cells assessed as growth inhibition at 10 uM after 24 to 48 hrs by MTT assay relative to control. It counts as functional. The following applies: read-out: GI.
In experiment [3] the test system is HL-60. As to the kind of experiment: Cytotoxicity against human HL60 cells assessed as growth inhibition at 30 uM after 24 to 48 hrs by MTT assay relative to control. It counts as functional. Particulars: read-out: GI.
Experiment [4] has as its system HL-60. As to the kind of experiment: Cytotoxicity against human HL60 cells assessed as growth inhibition at 100 uM after 24 to 48 hrs by MTT assay relative to control. The following applies: read-out: GI. It counts as functional.
The nature of experiment [5]: Cytotoxicity against human MIAPaCa2 cells assessed as growth inhibition at 10 uM after 24 to 48 hrs by MTT assay relative to control. It counts as functional. Particulars: MIA PaCa-2, read-out: GI.
Experiment [6] in a line: Cytotoxicity against human MIAPaCa2 cells assessed as growth inhibition at 30 uM after 24 to 48 hrs by MTT assay relative to control. Format: functional. The following applies: MIA PaCa-2, read-out: GI.
A short description of experiment [7]: Cytotoxicity against human MIAPaCa2 cells assessed as growth inhibition at 100 uM after 24 to 48 hrs by MTT assay relative to control. It counts as functional. The following applies: MIA PaCa-2, read-out: GI.
Experiment [8] has as its system HCT-116. As to the kind of experiment: Cytotoxicity against human HCT116 cells assessed as growth inhibition at 10 uM after 24 to 48 hrs by MTT assay relative to control. Format: functional. The following applies: read-out: GI.
Experiment [9] concerns HCT-116. As to the kind of experiment: Cytotoxicity against human HCT116 cells assessed as growth inhibition at 30 uM after 24 to 48 hrs by MTT assay relative to control. Particulars: read-out: GI. Format: functional.
The test system of experiment [10] is HCT-116. As to the kind of experiment: Cytotoxicity against human HCT116 cells assessed as growth inhibition at 100 uM after 24 to 48 hrs by MTT assay relative to control. Particulars: read-out: GI. Format: functional.
Experiment [11] deals with HepG2. As to the kind of experiment: Cytotoxicity against human HepG2 cells assessed as growth inhibition at 10 uM after 24 to 48 hrs by MTT assay relative to control. It counts as functional. Particulars: read-out: GI.
The subject of experiment [12] is HepG2. As to the kind of experiment: Cytotoxicity against human HepG2 cells assessed as growth inhibition at 30 uM after 24 to 48 hrs by MTT assay relative to control. Format: functional. Particulars: read-out: GI.
The test system of experiment [13] is HepG2. As to the kind of experiment: Cytotoxicity against human HepG2 cells assessed as growth inhibition at 100 uM after 24 to 48 hrs by MTT assay relative to control. It counts as functional. The following applies: read-out: GI.
For experiment [14], the system named is PC-3. As to the kind of experiment: Cytotoxicity against human PC3 cells assessed as growth inhibition at 10 uM after 24 to 48 hrs by MTT assay relative to control. It counts as functional. Particulars: read-out: GI.
For experiment [15], the system named is PC-3. As to the kind of experiment: Cytotoxicity against human PC3 cells assessed as growth inhibition at 30 uM after 24 to 48 hrs by MTT assay relative to control. Format: functional. Particulars: read-out: GI.
Experiment [16] concerns PC-3. As to the kind of experiment: Cytotoxicity against human PC3 cells assessed as growth inhibition at 100 uM after 24 to 48 hrs by MTT assay relative to control. The following applies: read-out: GI. It counts as functional.
Experiment [17] can be described thus: Cell cycle arrest in human MIAPaCa2 cells assessed as accumulation at G1 phase at 10 uM after 24 hrs by propidium iodide staining-based flow cytometric analysis (reference value: 51%). It counts as functional. Particulars: MIA PaCa-2.
A short description of experiment [18]: Cell cycle arrest in human MIAPaCa2 cells assessed as accumulation at G1 phase at 20 uM after 24 hrs by propidium iodide staining-based flow cytometric analysis (reference value: 51%). Format: functional. Particulars: MIA PaCa-2.
Experiment [19] can be described thus: Cell cycle arrest in human MIAPaCa2 cells assessed as accumulation at G1 phase at 30 uM after 24 hrs by propidium iodide staining-based flow cytometric analysis (reference value: 51%). It counts as functional. The following applies: MIA PaCa-2.
Experiment [20] can be described thus: Cell cycle arrest in human MIAPaCa2 cells assessed as accumulation at S phase at 10 uM after 24 hrs by propidium iodide staining-based flow cytometric analysis (reference value: […]%). It counts as functional. The following applies: MIA PaCa-2.
Experiment [21] in a line: Cell cycle arrest in human MIAPaCa2 cells assessed as accumulation at S phase at 20 uM after 24 hrs by propidium iodide staining-based flow cytometric analysis (reference value: […]%). It counts as functional. The following applies: MIA PaCa-2.
Experiment [22] can be described thus: Cell cycle arrest in human MIAPaCa2 cells assessed as accumulation at S phase at 30 uM after 24 hrs by propidium iodide staining-based flow cytometric analysis (reference value: […]%). Format: functional. The following applies: MIA PaCa-2.
The nature of experiment [23]: Cell cycle arrest in human MIAPaCa2 cells assessed as accumulation at G2 phase at 10 uM after 24 hrs by propidium iodide staining-based flow cytometric analysis (reference value: 5%). Format: functional. The following applies: MIA PaCa-2.
A short description of experiment [24]: Cell cycle arrest in human MIAPaCa2 cells assessed as accumulation at G2 phase at 20 uM after 24 hrs by propidium iodide staining-based flow cytometric analysis (reference value: 5%). Format: functional. The following applies: MIA PaCa-2.
Experiment [25] is described as follows: Cell cycle arrest in human MIAPaCa2 cells assessed as accumulation at G2 phase at 30 uM after 24 hrs by propidium iodide staining-based flow cytometric analysis (reference value: 5%). Format: functional. Particulars: MIA PaCa-2.
Experiment [26] can be described thus: Cell cycle arrest in human MIAPaCa2 cells assessed as apoptotic cells at 10 uM after 24 hrs by propidium iodide staining-based flow cytometric analysis (reference value: 0.1%). It counts as functional. The following applies: MIA PaCa-2.
A short description of experiment [27]: Cell cycle arrest in human MIAPaCa2 cells assessed as apoptotic cells at 20 uM after 24 hrs by propidium iodide staining-based flow cytometric analysis (reference value: 0.1%). It counts as functional. Particulars: MIA PaCa-2.
Experiment [28] can be described thus: Cell cycle arrest in human MIAPaCa2 cells assessed as apoptotic cells at 30 uM after 24 hrs by propidium iodide staining-based flow cytometric analysis (reference value: 0.1%). Format: functional. The following applies: MIA PaCa-2.
A short description of experiment [29]: Cell cycle arrest in human MIAPaCa2 cells after 24 hrs by propidium iodide staining-based flow cytometric analysis. Format: functional. The following applies: MIA PaCa-2.
The nature of experiment [30]: Disruption of mitochondrial membrane potential in human MIAPaCa2 cells at 10 uM after 24 hrs by Rh123 dye-based flow cytometric analysis (reference value: 6%). Format: functional, MIA PaCa-2.
Experiment [31] can be described thus: Disruption of mitochondrial membrane potential in human MIAPaCa2 cells at 20 uM after 24 hrs by Rh123 dye-based flow cytometric analysis (reference value: 6%). It counts as functional, MIA PaCa-2.
Experiment [32] can be described thus: Disruption of mitochondrial membrane potential in human MIAPaCa2 cells at 30 uM after 24 hrs by Rh123 dye-based flow cytometric analysis (reference value: 6%). Format: functional, MIA PaCa-2.
Experiment [33] has as its system MIA PaCa-2. As to the kind of experiment: Effect on mTORC2 complex in human MIAPaCa2 cells assessed as p-Akt phosphorylation at S473 at 5 to 10 uM measured at 2 hrs by Western blot analysis. It counts as cell-based.
Experiment [34] deals with MIA PaCa-2. As to the kind of experiment: Effect on P110alpha expression in human MIAPaCa2 cells at 5 to 10 uM measured after 2 to 4 hrs by Western blot analysis. It counts as functional, cell-based.
For experiment [35], the system named is HL-60. As to the kind of experiment: cells. The following applies: Homo sapiens, HL-60, 48 h.
Description: Cytotoxicity against human HL60 cells assessed as inhibition of cell proliferation after 48 hrs by MTT assay
Experiment [36] can be described thus: cells. Particulars: Homo sapiens, MIA PaCa-2, 48 h.
Description: Cytotoxicity against human MIAPaCa2 cells assessed as inhibition of cell proliferation after 48 hrs by MTT assay
Experiment [37] concerns HCT-116. As to the kind of experiment: cells. Particulars: Homo sapiens, HCT-116, 48 h.
Description: Cytotoxicity against human HCT116 cells assessed as inhibition of cell proliferation after 48 hrs by MTT assay
Experiment [38] has as its system HepG2. As to the kind of experiment: cells. Particulars: Homo sapiens, HepG2, 48 h.
Description: Cytotoxicity against human HepG2 cells assessed as inhibition of cell proliferation after 48 hrs by MTT assay
Experiment [39] concerns PC-3. As to the kind of experiment: cells. Particulars: Homo sapiens, PC-3, 48 h.
Description: Cytotoxicity against human PC3 cells assessed as inhibition of cell proliferation after 48 hrs by MTT assay

With `COC[C@H]1OC(=O)c2coc3c2[C@@]1(C)C1=C(C3=O)[C@@H]2CCC(=O)[C@@]2(C)C[C@H]1OC(C)=O`, in experiment [1], the inhibition was 100%.
Consider `CC(=O)Nc1ccc(S(=O)(=O)N(c2ccccc2)c2ccnc3ccc(-c4ccc(O)cc4)cc23)cc1`, for which the inhibition of growth at 10 µM worked out at 25% in [2]; 64% in experiment [5]; 19% in [8]; 5% in experiment [11]; 12% in experiment [14]. Also, the inhibition of growth at 30 µM in experiment [3] stood at 93%; in experiment [6] it was 89%; in experiment [9] it was 25%; in experiment [12], 83%; in experiment [15] it was 14%. Further, the inhibition of growth at 100 µM in [4] came out at 94%; in [7], 89%; in experiment [10], 29%; in experiment [13] it was 87%; in experiment [16], 25%. The Activity is 59% in experiment [17]; 66% in [18]; 67% in experiment [19]; 22% in experiment [20]; 21% in experiment [21]; 19% in experiment [22]. Also, the Activity in [23] turned out to be 19%; in experiment [24] it was 13%; in experiment [25], 15%; in experiment [26], 1%; in [27], 1%; in [28] it was 6%. Besides, the Activity result in experiment [29] was “Dose-dependent effect”; in experiment [30], 13%; in experiment [31], 23%; in experiment [32], 42%. Moreover, the result in [33] and in [34] was inactive. Besides, the IC50 is 16 µM in [35]; 7 µM in experiment [36]; below 100 µM in [37]; 22 µM in [38]; 75 µM in experiment [39].
As to `Cc1ccc(S(=O)(=O)N(c2ccccc2)c2ccnc3ccc(-c4ccc(O)cc4)cc23)cc1`, the inhibition of growth at 10 µM turned out to be 78% in experiment [2]; 80% in experiment [5]; 21% in experiment [8]; 13% in [11]; 20% in experiment [14]. In addition, the inhibition of growth at 30 µM in [3] is 90%; in [6], 88%; in [9], 34%; in experiment [12], 90%; in experiment [15] it was 43%. The inhibition of growth at 100 µM amounted to 92% in [4]; 89% in [7]; 82% in experiment [10]; 97% in [13]; 72% in [16]. The IC50 was below 10 µM in [35]; below 10 µM in [36]; 53 µM in [37]; 19 µM in experiment [38]; 45 µM in experiment [39].
